Where a SMILES comes first, the peptide text is derived from it. Bridges are numbered along the chain shown (N, C = ends).
Tested on: Botrytis cinerea T-4
Test: Determination of minimum inhibitory concentration, 96-well plate spore assay with resazurin viability
Format: cell-based
Conditions: SFM supplemented with 100 mM NaCl
Method: The fungal strains of Botrytis cinerea T-4 were cultured on V8 growth medium. Fungal spores were harvested by flooding the fungal growth plates with sterile water. The spore suspension was filtered through two layers of Miracloth, centrifuged at 13,600 rpm for 1 min, washed, and re-suspended in low-salt Synthetic Fungal Medium (SFM) (U.S. Pat. No. 6,316,407). The spore suspension of each fungal pathogen was adjusted to equivalent spore density using a hemocytometer ([…]).
Anti-fungal activity of NCR13_WT and NCR13_V2 against B. cinerea was assessed using the 2-fold dilution series of each peptide. The antifungal activity was determined spectrophotometrically using the 96-well plate assay (Sagaram et al., 2011). The 45 μL of the peptide dilution ([…]) was added to each well of the microtiter plate containing 45 μL of (˜10^5 spores/ml) the spore suspension. The quantitative fungal growth inhibition was determined by measuring the absorbance at 595 nm using a (Tecan Infinite M200 ProTecan Systems Inc., San Jose, CA) microplate reader after 48 h. The fungal cell viability was determined using the resazurin cell viability assay (Chadha S & Kale SP, 2015; Li et al.; 2019). After incubation of the pathogen/peptide mixture for 48 h, 10 μl of 0.1% resazurin solution was added to each well and re-incubated overnight. […]

CC[C@H](C)[C@@H]1NC(=O)[C@@H]2CSSC[C@H](NC(=O)[C@@H]3CCCN3C(=O)[C@H](CCCCN)NC(=O)[C@@H](N)[C@@H](C)O)C(=O)N[C@@H](CCC(N)=O)C(=O)N[C@@H](CO)C(=O)N[C@@H](CC(=O)O)C(=O)N[C@@H](CCCCN)C(=O)N[C@@H](CC(=O)O)C(=O)N[C@H]3CSSC[C@H](NC(=O)[C@H](Cc4ccccc4)NC(=O)CNC(=O)[C@H](CC(N)=O)NC1=O)C(=O)N[C@@H](CCCCN)C(=O)N[C@H](C(=O)N[C@H](C(=O)N[C@@H](CCCNC(=N)N)C(=O)O)C(C)C)CSSC[C@H](NC(=O)[C@H](C)NC(=O)[C@H](Cc1ccccc1)NC(=O)[C@H](CCCCN)NC(=O)[C@H](CCCCN)NC3=O)C(=O)N[C@@H](CCCNC(=N)N)C(=O)N[C@@H](CCCCN)C(=O)N1CCC[C@H]1C(=O)N[C@@H](CCCCN)C(=O)N[C@@H](C(C)C)C(=O)N1CCC[C@H]1C(=O)N[C@@H](CCCCN)C(=O)N2 [CaNCR13] (H-TKPCQSDKDCKKFACRKPKVPKCINGFCKCVR-OH; disulfide 4-23, 10-28, 15-30)
MIC (SFM + 100 mM NaCl): No Activity
